Legend:
PKC delta = biological target: T1, PKC delta (Homo sapiens, UniProt Q05655); test: PKC delta Assay (384-well time resolved fluorescence, IMAP TR-FRET); type: biochemical; settings: selectivity for PKC-theta over PKC-delta
T1 construct: purchased Invitrogen
Method: PKC delta Assay. A 384-well time resolved fluorescence assay was used to monitor PKC delta activity. The PKC delta assay was run in the following assay buffer: 50 mM HEPES pH 7.6, 10 mM MgCl2, 1 mM DTT, 0.01% Triton X-100, 0.01% BSA and 0.1 mM EDTA. To initiate the reaction, 200 nM of Fam-labeled S6-derived peptide (Molecular Devices) and 10 μM of ATP were mixed with 1.5 nM of PKC delta (Invitrogen), for a total assay volume of 25 μL in each well. The assay was incubated at room temperature for 2 hours and terminated using a 60 μL/well mixture of Detection Binding Solution: 70% IMAP Progressive Binding Buffer A, 30% IMAP Progressive Binding Buffer B, 1:600 Progressive Binding Reagent, and 1:400 TR-FRET Tb Donor (Molecular Devices). The assay plates were then incubated overnight at room temperature and read on the Perkin-Elmer Envision Reader.

His-PKC-theta = biological target: T2, His-PKC-theta (Homo sapiens, UniProt Q04759); test: PKC-theta Assay (384-well time resolved fluorescence, IMAP TR-FRET); type: biochemical; settings: read-out: Act. Level (IC50 in the PKC-theta Assay)
T2 construct: His; purchased Invitrogen
How it was run: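 Fam-labeled S6-derived peptide (200 nM) and 10 μM ATP were reacted with 142 pM enzyme for 2 h at room temperature in HEPES pH 7.6 buffer with MgCl2, DTT, Triton X-100, BSA and EDTA. The reaction was stopped with IMAP progressive binding reagent plus Tb donor, incubated overnight, then TR-FRET read.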

T2 sequence (Q04759 whole entry): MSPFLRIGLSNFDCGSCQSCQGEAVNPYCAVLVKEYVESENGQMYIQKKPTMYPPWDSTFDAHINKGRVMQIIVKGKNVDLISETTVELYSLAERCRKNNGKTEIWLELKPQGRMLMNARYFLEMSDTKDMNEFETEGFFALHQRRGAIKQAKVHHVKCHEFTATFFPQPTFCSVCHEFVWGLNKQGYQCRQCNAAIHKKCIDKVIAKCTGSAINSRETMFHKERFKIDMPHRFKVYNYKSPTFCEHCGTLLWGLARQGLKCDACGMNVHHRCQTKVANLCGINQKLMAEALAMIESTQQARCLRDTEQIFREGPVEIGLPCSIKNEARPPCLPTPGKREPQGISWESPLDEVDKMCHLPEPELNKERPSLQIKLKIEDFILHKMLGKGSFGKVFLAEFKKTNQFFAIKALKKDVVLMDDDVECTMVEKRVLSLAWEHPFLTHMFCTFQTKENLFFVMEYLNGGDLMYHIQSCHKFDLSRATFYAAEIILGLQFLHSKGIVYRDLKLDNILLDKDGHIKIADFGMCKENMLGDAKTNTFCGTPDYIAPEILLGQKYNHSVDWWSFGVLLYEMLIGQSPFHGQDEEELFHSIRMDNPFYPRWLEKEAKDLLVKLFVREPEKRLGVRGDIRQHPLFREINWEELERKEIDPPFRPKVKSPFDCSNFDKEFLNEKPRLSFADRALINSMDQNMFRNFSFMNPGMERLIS
T1 sequence (Q05655 whole entry): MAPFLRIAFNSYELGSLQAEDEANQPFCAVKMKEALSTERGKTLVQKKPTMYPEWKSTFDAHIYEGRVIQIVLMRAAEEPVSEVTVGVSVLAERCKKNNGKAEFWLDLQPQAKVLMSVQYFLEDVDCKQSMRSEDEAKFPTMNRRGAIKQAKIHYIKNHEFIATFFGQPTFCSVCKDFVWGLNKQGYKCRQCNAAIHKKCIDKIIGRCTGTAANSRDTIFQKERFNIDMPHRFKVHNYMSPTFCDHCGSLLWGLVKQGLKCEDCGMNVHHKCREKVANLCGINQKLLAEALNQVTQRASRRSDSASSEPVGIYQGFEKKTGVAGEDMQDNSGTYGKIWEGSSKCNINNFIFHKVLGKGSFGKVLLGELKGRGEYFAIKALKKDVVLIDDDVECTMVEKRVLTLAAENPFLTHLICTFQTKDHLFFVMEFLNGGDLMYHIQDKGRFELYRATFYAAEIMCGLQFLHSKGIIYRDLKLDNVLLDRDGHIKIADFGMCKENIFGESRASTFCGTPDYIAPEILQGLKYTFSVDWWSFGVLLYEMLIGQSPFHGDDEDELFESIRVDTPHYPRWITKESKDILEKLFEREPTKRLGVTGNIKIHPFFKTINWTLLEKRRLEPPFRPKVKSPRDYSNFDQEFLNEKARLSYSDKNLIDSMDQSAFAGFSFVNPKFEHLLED

Compound | Sel. Level (ratio of IC50 PKC-delta/IC50 PKC-theta) (PKC delta) | IC50 (His-PKC-theta)
CN(C)C(=O)[C@H]1C[C@@H](Nc2nc(NCCc3c[nH]c4ccccc34)ncc2C#N)C1 [Cmpd 288] | G (selectivity between 5- and 20-fold (selectivity level G)) | 100 to 800 nM
CCc1cccn1CCNc1ncc(C#N)c(N[C@H]2CC[C@@H](C(N)=O)CC2)n1 [Cmpd 323] | G (selectivity between 5- and 20-fold (selectivity level G)) | 100 to 800 nM
Cn1c(=O)n(CCNc2ncc(C#N)c(N[C@@H]3CC[C@H](O)C(C)(C)C3)n2)c2ccccc21 [Cmpd 291] | H (selectivity level of 5-fold or less (selectivity level H)) | 2000 to 10000 nM
COc1cncc(CCNc2ncc(C#N)c(N[C@H]3CC[C@@H](O)CC3)n2)c1 [Cmpd 331] | H (selectivity level of 5-fold or less (selectivity level H)) | 2000 to 10000 nM
CC1(C)[C@@H](O)CCC[C@H]1Nc1nc(NCCC2C(=O)Nc3cc(F)ccc32)ncc1C#N (some centres unmarked) [Cmpd 312] | G (selectivity between 5- and 20-fold (selectivity level G)) | 100 to 800 nM
CC1(C)C[C@H](Nc2nc(NCCn3ccnc3)ncc2C#N)CC[C@@H]1O [Cmpd 221] | H (selectivity level of 5-fold or less (selectivity level H)) | 2000 to 10000 nM
CC1(C)[C@@H](Nc2nc(NCCC3C(=O)Nc4cc(F)ccc43)ncc2C#N)CCC[C@@H]1O (some centres unmarked) [Cmpd 309] | G (selectivity between 5- and 20-fold (selectivity level G)) | 800 to 2000 nM
CC1(C)C[C@H](Nc2nc(NCCc3cc4ccccc4[nH]3)ncc2C#N)CC[C@@H]1O [Cmpd 200] | G (selectivity between 5- and 20-fold (selectivity level G)) | 800 to 2000 nM
CC1(C)CC(Nc2nc(NCCc3c[nH]c4cccnc34)ncc2C#N)CC[C@@H]1O (some centres unmarked) [Cmpd 255] | H (selectivity level of 5-fold or less (selectivity level H)) | 2000 to 10000 nM
Cc1cccnc1CCNc1ncc(C#N)c(NC2C[C@H](O)C2(C)C)n1 (some centres unmarked) [Cmpd 224] | H (selectivity level of 5-fold or less (selectivity level H)) | 2000 to 10000 nM
CC1(C)C[C@H](Nc2nc(NCCn3cccn3)ncc2C#N)CC[C@@H]1O [Cmpd 211] | H (selectivity level of 5-fold or less (selectivity level H)) | 2000 to 10000 nM
CC1(C)[C@H](Nc2nc(NCc3cncnc3OCCC(F)(F)F)ncc2C#N)C[C@]1(C)O [Cmpd 334] | E (selectivity (Sel. Level=ratio of IC50 PKC-delta/IC50 PKC-theta) of >100-fold (selectivity level E)) | < 100 nM
COCc1noc(CCNc2ncc(C#N)c(N[C@@H]3CC[C@H](O)C(C)(C)C3)n2)n1 [Cmpd 199] | H (selectivity level of 5-fold or less (selectivity level H)) | 2000 to 10000 nM
CC1(C)[C@H](O)CCC[C@H]1Nc1nc(NCCC2C(=O)Nc3cc(F)ccc32)ncc1C#N (some centres unmarked) [Cmpd 310] | H (selectivity level of 5-fold or less (selectivity level H)) | 800 to 2000 nM
Cc1cc2ccccc2n1CCNc1ncc(C#N)c(N[C@@H]2C[C@H](O)C2(C)C)n1 [Cmpd 243] | G (selectivity between 5- and 20-fold (selectivity level G)) | 800 to 2000 nM
CC1(C)[C@@H](O)C[C@H]1Nc1nc(NCCc2ccco2)ncc1C#N [Cmpd 234] | G (selectivity between 5- and 20-fold (selectivity level G)) | 800 to 2000 nM
CC1(C)C[C@H](Nc2nc(NCCc3cncc(Cl)c3)ncc2C#N)CC[C@@H]1O [Cmpd 276] | F (selectivity of between 20- and 100-fold (selectivity level F)) | 100 to 800 nM
CC(F)(F)COc1ncncc1CNc1ncc(C#N)c(N[C@@H]2CCC[C@@](C)(O)C2)n1 [Cmpd 286] | F (selectivity of between 20- and 100-fold (selectivity level F)) | 100 to 800 nM
CC1(C)C[C@H](Nc2nc(NCCc3cc(Cl)c[n+]([O-])c3)ncc2C#N)CC[C@@H]1O [Cmpd 275] | G (selectivity between 5- and 20-fold (selectivity level G)) | 800 to 2000 nM

Compound | Sel. Level (ratio of IC50 PKC-delta/IC50 PKC-theta) (PKC delta) | IC50 (His-PKC-theta)
Cn1cc(CCNc2ncc(C#N)c(N[C@@H]3CC[C@H](O)C(C)(C)C3)n2)c2ccccc21 [Cmpd 292] | F (selectivity of between 20- and 100-fold (selectivity level F)) | < 100 nM
CC1(C)C[C@H](Nc2nc(NCCc3c[nH]c4cc(F)ccc34)ncc2C#N)CC[C@@H]1O [Cmpd 252] | E (selectivity (Sel. Level=ratio of IC50 PKC-delta/IC50 PKC-theta) of >100-fold (selectivity level E)) | < 100 nM
CC(F)(F)COc1ncncc1CNc1ncc(C#N)c(N[C@@H]2CCC[C@@H](O)C2(C)C)n1 [Cmpd 297] | F (selectivity of between 20- and 100-fold (selectivity level F)) | 100 to 800 nM
Cc1cnn(CCNc2ncc(C#N)c(N[C@@H]3CC[C@H](O)C(C)(C)C3)n2)c1 [Cmpd 212] | H (selectivity level of 5-fold or less (selectivity level H)) | 2000 to 10000 nM
CC1(C)[C@H](O)CCC[C@H]1Nc1nc(NCCC2C(=O)Nc3ccc(F)cc32)ncc1C#N (some centres unmarked) [Cmpd 314] | H (selectivity level of 5-fold or less (selectivity level H)) | 100 to 800 nM
Cc1cccc2c1NC(=O)C2CCNc1ncc(C#N)c(N[C@@H]2C[C@H](O)C2(C)C)n1 (some centres unmarked) [Cmpd 260] | F (selectivity of between 20- and 100-fold (selectivity level F)) | < 100 nM
CC1(C)[C@@H](O)C[C@H]1Nc1nc(NCCc2c[nH]c3ncccc23)ncc1C#N [Cmpd 241] | G (selectivity between 5- and 20-fold (selectivity level G)) | 800 to 2000 nM
CC1(C)C[C@H](Nc2nc(NCCc3ccncn3)ncc2C#N)CC[C@@H]1O [Cmpd 278] | H (selectivity level of 5-fold or less (selectivity level H)) | 2000 to 10000 nM
CC1(C)[C@@H](O)C[C@H]1Nc1nc(NCCc2ccnc(C(F)(F)F)c2)ncc1C#N [Cmpd 273] | G (selectivity between 5- and 20-fold (selectivity level G)) | 800 to 2000 nM
N#Cc1cnc(NCCc2c[nH]c3ccccc23)nc1N[C@H]1C[C@@H](C(N)=O)C1 [Cmpd 290] | F (selectivity of between 20- and 100-fold (selectivity level F)) | 100 to 800 nM
CC1(C)C[C@H](Nc2nc(NCCc3cncnc3)ncc2C#N)CC[C@@H]1O [Cmpd 277] | H (selectivity level of 5-fold or less (selectivity level H)) | 2000 to 10000 nM
Cc1cccc(CCNc2ncc(C#N)c(N[C@@H]3CC[C@H](O)C(C)(C)C3)n2)n1 [Cmpd 250] | G (selectivity between 5- and 20-fold (selectivity level G)) | 800 to 2000 nM
COc1cccc(CCNc2ncc(C#N)c(N[C@@H]3CC[C@H](O)C(C)(C)C3)n2)n1 [Cmpd 215] | G (selectivity between 5- and 20-fold (selectivity level G)) | 800 to 2000 nM
CC1(C)C[C@H](Nc2nc(NCCn3cc(C#N)cn3)ncc2C#N)CC[C@@H]1O [Cmpd 213] | H (selectivity level of 5-fold or less (selectivity level H)) | 2000 to 10000 nM
CC1(C)[C@@H](O)C[C@H]1Nc1nc(NCCn2ccc3ccccc32)ncc1C#N [Cmpd 239] | H (selectivity level of 5-fold or less (selectivity level H)) | 2000 to 10000 nM
CCOc1cc(CCNc2ncc(C#N)c(N[C@H]3CC[C@@H](O)CC3)n2)ccn1 [Cmpd 328] | H (selectivity level of 5-fold or less (selectivity level H)) | 2000 to 10000 nM
CC1(C)C[C@H](Nc2nc(NCCc3cncc(C(F)(F)F)c3)ncc2C#N)CC[C@@H]1O [Cmpd 271] | G (selectivity between 5- and 20-fold (selectivity level G)) | 800 to 2000 nM
CCOc1cccc(CCNc2ncc(C#N)c(N[C@@H]3C[C@H](O)C3(C)C)n2)n1 [Cmpd 267] | G (selectivity between 5- and 20-fold (selectivity level G)) | 800 to 2000 nM

Reference: patent publication US9783505B2, “Substituted diaminopyrimidyl compounds, compositions thereof, and methods of treatment therewith” (Signal Pharmaceuticals, LLC, priority 2013, dated 2017)
